Experimental data taken from patent publication US8623892B2, “Metalloenzyme inhibitor compounds” (Viamet Pharmaceuticals, Inc., priority 2010, dated 2014).

Experiments:
CYP2C19 = CYP2C19 (Homo sapiens (Human), UniProt P33261); experiment: Inhibition of liver cytochrome P450 enzymes (pooled human liver microsomes), CYP2C19; conditions: read-out: CYP2C19 IC50
Description: (§1) Solutions of each test compound were separately prepared at concentrations of 20000, 6000, 2000, 600, 200, and 60 μM by serial dilution with DMSO:MeCN (50:50 v/v). The individual test compound solutions were then diluted 20 fold with DMSO:MeCN:deionized water (5:5:180 v/v/v) to concentrations of 1000, 300, 100, 30, 10, and 3 μM. […] The percent of organic solvent attributable to the test compound or inhibitor mixture in the final reaction mixture was 2% v/v.
(§2) Pooled human liver microsome suspension (20 mg/mL) was diluted with phosphate buffer to obtain a 5 mg/mL suspension. A solution of NADPH was prepared in phosphate buffer at a concentration of 5 mM. Separate stock solutions of each substrate were prepared in DMSO:MeCN (50:50 v/v), mixed, and diluted in phosphate buffer to obtain a single solution containing each substrate at five times its experimentally determined Km concentration. […]
(§3) Substrate solution and microsome suspension were combined in a 1:1 volume ratio, mixed, and distributed to reaction wells of a PCR plate. […] A portion of the supernatant was analyzed by gradient reverse-phase HPLC with detection by electrospray ionization triple quadrupole mass spectrometry in the positive ion mode.
(§4) Data was fitted to sigmoid dose-response curves and the inhibitory potency of each test compound was determined as its IC50 value.

CYP2C9 = CYP2C9 (Homo sapiens (Human), UniProt P11712); experiment: Inhibition of liver cytochrome P450 enzymes (pooled human liver microsomes), CYP2C9; conditions: read-out: CYP2C9 IC50
Chain of CYP2C9 (P11712 whole entry): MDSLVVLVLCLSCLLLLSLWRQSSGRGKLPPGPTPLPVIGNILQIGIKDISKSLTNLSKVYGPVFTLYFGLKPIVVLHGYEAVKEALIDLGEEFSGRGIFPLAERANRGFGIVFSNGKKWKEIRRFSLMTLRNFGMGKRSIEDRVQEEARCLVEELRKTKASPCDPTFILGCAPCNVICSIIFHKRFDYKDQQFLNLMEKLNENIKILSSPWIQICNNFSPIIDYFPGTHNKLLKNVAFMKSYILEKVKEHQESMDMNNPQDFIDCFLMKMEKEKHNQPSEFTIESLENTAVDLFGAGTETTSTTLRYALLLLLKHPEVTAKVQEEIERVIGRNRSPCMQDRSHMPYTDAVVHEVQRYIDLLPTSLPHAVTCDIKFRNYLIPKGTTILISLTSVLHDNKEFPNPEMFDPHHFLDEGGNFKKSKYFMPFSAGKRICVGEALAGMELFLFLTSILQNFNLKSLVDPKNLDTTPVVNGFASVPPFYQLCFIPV
Description: as §1, §2, §3, §4

CYP17 = CYP17 (Rattus norvegicus (Rat), UniProt P11715); experiment: Inhibition of CYP17 (pooled rat testicular microsomes); type: biochemical
Chain of CYP17 (P11715 whole entry): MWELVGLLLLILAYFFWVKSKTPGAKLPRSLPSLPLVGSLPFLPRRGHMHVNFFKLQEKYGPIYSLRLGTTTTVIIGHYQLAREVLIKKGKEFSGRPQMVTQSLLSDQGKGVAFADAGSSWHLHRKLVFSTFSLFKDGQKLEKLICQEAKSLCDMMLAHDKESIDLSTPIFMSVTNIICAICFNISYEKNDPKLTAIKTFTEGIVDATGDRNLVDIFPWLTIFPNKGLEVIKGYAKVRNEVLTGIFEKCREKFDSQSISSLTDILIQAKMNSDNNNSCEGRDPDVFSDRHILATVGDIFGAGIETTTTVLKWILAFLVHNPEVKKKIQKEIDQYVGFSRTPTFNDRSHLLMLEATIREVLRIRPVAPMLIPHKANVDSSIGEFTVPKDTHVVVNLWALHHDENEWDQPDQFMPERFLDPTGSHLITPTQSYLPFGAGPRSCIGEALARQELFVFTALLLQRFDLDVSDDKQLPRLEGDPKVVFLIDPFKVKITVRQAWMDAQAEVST
Description: CYP17 activity was assayed according to the following procedure. […] The individual test compound and isozyme inhibitor solutions were then diluted 20-fold with deionized water (50:950 v/v) to concentrations of 135, 27, 4.5, 0.9, 0.15, 0.03 and 0.005 μM. […] For active controls, blank test compound diluent was added in place of test compound solution.

Chain of CYP2C19 (P33261 whole entry): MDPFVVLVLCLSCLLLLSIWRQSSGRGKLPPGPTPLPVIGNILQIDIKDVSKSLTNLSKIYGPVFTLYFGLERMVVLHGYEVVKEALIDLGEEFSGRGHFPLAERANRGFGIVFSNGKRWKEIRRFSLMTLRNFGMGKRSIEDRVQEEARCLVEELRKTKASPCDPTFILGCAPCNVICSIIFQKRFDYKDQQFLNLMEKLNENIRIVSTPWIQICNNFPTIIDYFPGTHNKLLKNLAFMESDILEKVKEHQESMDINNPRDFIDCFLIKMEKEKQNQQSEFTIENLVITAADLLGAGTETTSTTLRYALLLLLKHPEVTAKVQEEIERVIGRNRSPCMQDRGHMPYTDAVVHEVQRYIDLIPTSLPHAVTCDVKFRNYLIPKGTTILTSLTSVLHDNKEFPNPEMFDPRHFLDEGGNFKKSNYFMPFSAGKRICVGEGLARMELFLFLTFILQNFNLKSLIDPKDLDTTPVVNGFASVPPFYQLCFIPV

Row | Structure (SMILES) | IC50 (CYP2C19) [µM] | IC50 (CYP2C9) [µM] | IC50 (CYP17) [µM]
1 | COc1cc2ccc(C(O)(c3c[nH]nn3)C(C)C)cc2cc1OC (centres unmarked) [Example 1, 1-(6,7-Dimethoxynaphthalen-2-yl)-2-methyl-1-(1H-1,2,3-triazol-4-yl)propan-1-ol] | 33 | 39 | 0.18
2 | COc1cc2cnc(C(O)(c3c[nH]nn3)C(C)C)cc2cc1OC (centres unmarked) [Example 2, 1-(6,7-Dimethoxyisoquinolin-3-yl)-2-methyl-1-(1H-1,2,3-triazol-4-yl)propan-1-ol] |  |  | 0.96
3 | CC(C)C(O)(c1ccc2cc(OC(F)F)c(OC(F)F)cc2c1)c1c[nH]nn1 (centres unmarked) [Example 3, 1-(6,7-Bis(difluoromethoxy)naphthalen-2-yl)-2-methyl-1-(1H-1,2,3-triazol-4-yl)propan-1-ol] | 19 | 12 | 
4 | CC(C)C(O)(c1ccc2cc(-c3cnco3)ccc2c1)c1c[nH]nn1 (centres unmarked) [Example 4, 2-Methyl-1-(6-(oxazol-5-yl)naphthalen-2-yl)-1-(1H-1,2,3-triazol-4-yl)propan-1-ol] |  |  | 0.51
5 | CC(=O)N1CCN(c2ccc(OCC3COC(Cn4ccnc4)(c4ccc(Cl)cc4Cl)O3)cc2)CC1 (centres unmarked) [Ketoconazole, reference compound] |  |  | 0.4
